Test results from patent publication US10669240B2, “5-substituted indazole-3-carboxamides and preparation and use thereof” (Samumed, LLC, priority 2014, dated 2020).

What follows are compounds tested against DYRK1A (Homo sapiens (Human), UniProt Q13627) (assay: DYRK1A activity Tau assay: pSer396 Tau in SH-SY5Y cells by ELISA / western blot). Conditions: overnight (16-18 h) exposure.
Format: cell-based

Row | SMILES | EC50
1 | O=C(NC1CCCCC1)c1n[nH]c2ccc(-c3cccc(F)c3)cc12 [Compound 12, N-Cyclohexyl-5-(3-fluorophenyl)-1H-indazole-3-carboxamide] | > 10000 nM
2 | CN(C)CCNC(=O)c1n[nH]c2ccc(-c3cccc(F)c3F)cc12 [Compound 1165, 5-(2,3-Difluorophenyl)-N-(2-(dimethylamino)ethyl)-1H-indazole-3-carboxamide] | 77 nM
3 | CC(C)(F)CN1CCC(NC(=O)c2n[nH]c3ccc(-c4ccc(F)nc4)cc23)CC1 [Compound 1321, N-(1-(2-Fluoro-2-methylpropyl)piperidin-4-yl)-5-(6-fluoropyridin-3-yl)-1H-indazole-3-carboxamide] | 14 nM
4 | CN(C)Cc1cncc(-c2ccc3[nH]nc(C(=O)NC4(c5ccccc5)CC4)c3c2)c1 [Compound 37, 5-(5-((Dimethylamino)methyl)pyridin-3-yl)-N-(1-phenylcyclopropyl)-1H-indazole-3-carboxamide] | 196 nM
5 | CCN1CCC(NC(=O)c2n[nH]c3ccc(-c4cnc5ccccc5c4)cc23)CC1 [Compound 1294, N-(1-Ethylpiperidin-4-yl)-5-(quinolin-3-yl)-1H-indazole-3-carboxamide] | 238 nM
6 | [2H]C([2H])(c1cncc(-c2ccc3[nH]nc(C(=O)Nc4cccnc4)c3c2)c1)N1CCCCC1 [Compound 63, 5-(5-(piperidin-1-ylmethyl-d2)pyridin-3-yl)-N-(pyridin-3-yl)-1H-indazole-3-carboxamide] | 1 nM
7 | O=C(NC1CCN(CC(F)(F)F)CC1)c1n[nH]c2ccc(-c3cccnc3)cc12 [Compound 1182, 5-(Pyridin-3-yl)-N-(1-(2,2,2-trifluoroethyl)piperidin-4-yl)-1H-indazole-3-carboxamide] | 8 nM
8 | CN(C)CCCNC(=O)c1n[nH]c2ccc(-c3cccc(F)c3F)cc12 [Compound 1260, 5-(2,3-Difluorophenyl)-N-(3-(dimethylamino)propyl)-1H-indazole-3-carboxamide] | 135 nM
9 | CC(C)NC(=O)c1n[nH]c2ccc(-c3cncc(F)c3)cc12 [Compound 1250, 5-(5-Fluoropyridin-3-yl)-N-isopropyl-1H-indazole-3-carboxamide] | 49 nM
10 | O=C(NC1CCCC1)c1n[nH]c2ccc(-c3cncc(F)c3)cc12 [Compound 1280, N-Cyclopentyl-5-(5-fluoropyridin-3-yl)-1H-indazole-3-carboxamide] | 32 nM
11 | CC(C)(C)NC(=O)c1n[nH]c2ccc(-c3cncc(CN4CC(F)(F)C4)c3)cc12 [Compound 1210, N-(tert-Butyl)-5-(5-((3,3-difluoroazetidin-1-yl)methyl)pyridin-3-yl)-1H-indazole-3-carboxamide] | 128 nM
12 | CN1CCC(NC(=O)c2n[nH]c3ccc(-c4ccc(F)cc4)cc23)CC1 [Compound 17, 5-(4-Fluorophenyl)-N-(1-methylpiperidin-4-yl)-1H-indazole-3-carboxamide] | 9000 nM
13 | COc1cccc(-c2ccc3[nH]nc(C(=O)NC(C)C)c3c2)c1F [Compound 1339, 5-(2-Fluoro-3-methoxyphenyl)-N-isopropyl-1H-indazole-3-carboxamide] | > 10000 nM
14 | O=C(NC1CCN(CC2CCC2)CC1)c1n[nH]c2ccc(-c3cccnc3)cc12 [Compound 1314, N-(1-(Cyclobutylmethyl)piperidin-4-yl)-5-(pyridin-3-yl)-1H-indazole-3-carboxamide] | 11 nM
15 | O=C(NCc1ccccc1)c1n[nH]c2ccc(-c3cncc(CN4CCCCC4)c3)cc12 [Compound 26, N-Benzyl-5-(5-(piperidin-1-ylmethyl)pyridin-3-yl)-1H-indazole-3-carboxamide] | 1 nM

Further compounds by falling EC50, results first:

Row | EC50 | SMILES
16 | 1800 nM | CCN1CCC(NC(=O)c2n[nH]c3ccc(-c4cccc(OC)c4F)cc23)CC1 [Compound 1338, N-(1-Ethylpiperidin-4-yl)-5-(2-fluoro-3-methoxyphenyl)-1H-indazole-3-carboxamide]
17 | 340 nM | CCN1CCC(NC(=O)c2n[nH]c3ccc(-c4cnc5ccc(F)cc5c4)cc23)CC1 [Compound 1295, N-(1-Ethylpiperidin-4-yl)-5-(6-fluoroquinolin-3-yl)-1H-indazole-3-carboxamide]
18 | 98 nM | O=C(NC1CCCC1)c1n[nH]c2ccc(-c3cncc(Cl)c3)cc12 [Compound 1279, 5-(5-Chloropyridin-3-yl)-N-cyclopentyl-1H-indazole-3-carboxamide]
19 | 45 nM | CCN(CC)Cc1cncc(-c2ccc3[nH]nc(C(=O)NC(C)C)c3c2)c1 [Compound 1246, 5-(5-((Diethylamino)methyl)pyridin-3-yl)-N-isopropyl-1H-indazole-3-carboxamide]
20 | 42 nM | CC(C)(F)CN1CCC(NC(=O)c2n[nH]c3ccc(-c4cccnc4F)cc23)CC1 [Compound 1320, N-(1-(2-Fluoro-2-methylpropyl)piperidin-4-yl)-5-(2-fluoropyridin-3-yl)-1H-indazole-3-carboxamide]
21 | 31 nM | CN(C)Cc1cncc(-c2ccc3[nH]nc(C(=O)NC4Cc5ccccc5C4)c3c2)c1 [Compound 23, N-(2,3-Dihydro-1H-inden-2-yl)-5-(5-((dimethylamino)methyl)pyridin-3-yl)-1H-indazole-3-carboxamide]
22 | 27 nM | O=C(NC1CCN(CCF)CC1)c1n[nH]c2ccc(-c3cncc(Cl)c3)cc12 [Compound 1296, 5-(5-Chloropyridin-3-yl)-N-(1-(2-fluoroethyl)piperidin-4-yl)-1H-indazole-3-carboxamide]
23 | 22 nM | CC(C)(C)N1CCC(NC(=O)c2n[nH]c3ccc(-c4cncc(N5CCCC5)c4)cc23)CC1 [Compound 293, N-(1-(tert-Butyl)piperidin-4-yl)-5-(5-(pyrrolidin-1-yl)pyridin-3-yl)-1H-indazole-3-carboxamide]
24 | 22 nM | O=C(Nc1ccc(CN2CCCC2)cc1)c1n[nH]c2cc(F)c(-c3cccnc3)cc12 [Compound 1345, 6-Fluoro-5-(pyridin-3-yl)-N-(4-(pyrrolidin-1-ylmethyl)phenyl)-1H-indazole-3-carboxamide]
25 | 21 nM | CN1CCC(NC(=O)c2n[nH]c3cc(F)c(-c4cccnc4)cc23)CC1 [Compound 1290, 6-Fluoro-N-(1-methylpiperidin-4-yl)-5-(pyridin-3-yl)-1H-indazole-3-carboxamide]
26 | 14 nM | CC[C@@H](C)NC(=O)c1n[nH]c2ccc(-c3cccnc3)cc12 [Compound 1257, (R)—N-(sec-butyl)-5-(pyridin-3-yl)-1H-indazole-3-carboxamide]
27 | 10 nM | O=C(NC1CC1)c1n[nH]c2ccc(-c3cncc(N4CCCC4)c3)cc12 [Compound 143, N-Cyclopropyl-5-(5-(pyrrolidin-1-yl)pyridin-3-yl)-1H-indazole-3-carboxamide]
28 | 6 nM | O=C(NC1CCN(CC(F)F)CC1)c1n[nH]c2ccc(-c3cccnc3)cc12 [Compound 1181, N-(1-(2,2-Difluoroethyl)piperidin-4-yl)-5-(pyridin-3-yl)-1H-indazole-3-carboxamide]
29 | 6 nM | CC(F)(F)CN1CCC(NC(=O)c2n[nH]c3ccc(-c4cccnc4)cc23)CC1 [Compound 1300, N-(1-(2,2-Difluoropropyl)piperidin-4-yl)-5-(pyridin-3-yl)-1H-indazole-3-carboxamide]
30 | 5 nM | O=C(Nc1cccc(C(F)(F)F)n1)c1n[nH]c2ccc(-c3cncc(CN4CCCCC4)c3)cc12 [Compound 62, 5-(5-(Piperidin-1-ylmethyl)pyridin-3-yl)-N-(6-(trifluoromethyl)pyridin-2-yl)-1H-indazole-3-carboxamide]
